Test results reported in patent US9675701B2, “Coloured disinfectant preparation based on bispyridiniumalkane” (L'AIR LIQUIDE, SOCIETE ANONYME POUR L'ETUDE ET …, priority 2014, dated 2017).

Key:
[1] = Efficacy of octenidine in Octeniderm with added dye
From the text: However, blue dyes are not accepted by the market on account of the poor visibility of the vessels under the skin.

S. aureus ATCC 6538 = assay: Method A: remanence effect of the dried preparation on tiles, germ count determination; assay type: cell-based; conditions: preliminary experiments with a new type of method
Experimental: No in-vitro method was hitherto known for being able to rapidly examine (i.e. screen) the potential impairment of the remanent effect of antiseptic active ingredients due to added dyes, and specifically in particular in the presence of large amounts of solvents, such as alcohols. […] 0.2 ml of the test preparation was spread to the edge on a tile measuring 5×5 cm and left to dry optically. Here, solvents evaporate and the antiseptic active ingredient (octenidine was tested) remains on the tile. Then, 0.1 ml of bacteria suspension (test germ S. aureus ATCC 6538, starting germ count of the solution 10^6 CFU/ml, on the tile then 10^5 CFU/ml) is applied to an area of 3×3 cm on the tile. After the corresponding contact time, the tile is transferred to a container filled with glass beads (diameter 3-4 mm) and 10 ml of neutralization solution (TLSH) and shaken for 2 minutes on a horizontal shaker at 200 rpm. Finally, a germ count determination is performed by means of dilution series. The dilution stages 10^0, 10^−1, 10^−2 and 10^−3 are plated out. The agar plates are incubated for 24-48 hours at 36±1° C. The CFU/ml resulting therefrom is used to calculate the logarithmic reduction factor (RF) for the preparations and the water control. A high […] reduction factor means good bactericidal efficacy of the preparation. […]

Row | Structure (SMILES) | restriction of the efficacy of the octenidine in Octeniderm by the dye [1] | remanence effect of octenidine in preparations which comprise the dye (S. aureus ATCC 6538)
1 | CCN(CC)c1ccc(C(=C2C=CC(=[N+](CC)CC)C=C2)c2cc(O)c(S(=O)(=O)[O-])cc2S(=O)(=O)[O-])cc1.CCN(CC)c1ccc(C(=C2C=CC(=[N+](CC)CC)C=C2)c2cc(O)c(S(=O)(=O)[O-])cc2S(=O)(=O)[O-])cc1.[Ca+2] [Patent Blue V] | no restriction of the efficacy | 
2 | O=C([O-])c1ccccc1-c1c2ccc(=O)cc-2oc2cc([O-])ccc12.[Na+].[Na+] [uranine] |  | inhibited
